According to article PMC9150124, “Design of a Potent, Selective, and Brain-Penetrant Inhibitor of Wnt-Deactivating Enzyme Notum by Optimization of a Crystallographic Fragment Hit” (Journal of Medicinal Chemistry, 2022):
≈ marks a conversion by molar mass, not a printed value. Where “and” joins values, the source holds several entries; their conditions need not be identical. Equal entries are not always repeated. Entries after “also recorded” stand apart in the source; their conditions may differ. Where two headings read alike, the source gives them in different places.

Experiments:
CYP450 enzymes = test: CYP time-dependent inactivation (IC50 shift); type: in vitro ADME, human; details: HLM preincubation ± NADPH
MAOA = molecular target: T1, MAOA (Homo sapiens, UniProt P21397); test: Safety47 MAOA assay; type: biochemical
T1 construct: Eurofins (DiscoverX Safety47)
Description: (§1) Screening for off-target pharmacology across multiple drug target classes was performed in the DiscoverX Safety47 panel as the SAFETYscan E/IC50 ELECT service by Eurofins (San Diego CA, U.S.A.). Assay information and data are presented in the Supporting Information.
(§2) Safety pharmacology studies
(§3) Screening for off-target pharmacology across multiple drug target classes was performed in the DiscoverX Safety47™ panel as the SAFETYscan E/IC50 ELECT service by eurofins (San Diego CA, U.S.A.). The assays were performed utilizing the PathHunter enzyme fragment complementation (EFC) technology, FLIPR®-based cellular screening assays, KINOMEscan kinase binding assays, and a variety of enzymatic assays (78 assays).

HTR3A = molecular target: T2, HTR3A (Homo sapiens, UniProt P46098); test: Safety47 HTR3A antagonist assay; type: cell-based
T2 construct: Eurofins (DiscoverX Safety47)
Description: as §1, §2, §3

serine hydrolases = test: ABPP-TMT serine hydrolase selectivity in SW620 cells; details: SW620 conditioned media and cell lysates
hERG = molecular target: T3, hERG (Homo sapiens, UniProt Q12809); test: Safety47 hERG assay; type: cell-based
T3 construct: Eurofins (DiscoverX Safety47)
Description: as §1

[1] = molecular target: panel of 485 distinct kinases; test: Kinase selectivity panel (SelectScreen); type: biochemical
CYP2C9 = CYP2C9 (Homo sapiens, UniProt P11712); test: CYP450 inhibition in HLM
[2] = Solubility in dose formulations (cosolvents); type: physicochemical
[3] = Metabolic stability in human hepatocytes
[4] = system: 47 human off-target liabilities; test: DiscoverX Safety47 panel (78 functional assays); details: @ 30 μM
Description: as §1, §2, §3

CYP2D6 = CYP2D6 (Homo sapiens, UniProt P10635); test: CYP450 inhibition in HLM
[5] = Brain tissue binding, rapid equilibrium dialysis; type: in vitro ADME, mouse; details: for fraction unbound at 5 h, 10 µM: brain homogenate
Description: Method: rapid equilibrium dialysis.
Test System Mouse Brain Homogenate 10% w/v in PBS
No. of Replicates Two (mouse) or three (rat)
Buffer Phosphate buffer saline, pH 7.4

CYP2C8 = molecular target: T4, CYP2C8 (Homo sapiens, UniProt P10632); test: CYP450 inhibition in HLM
T4 sequence (P10632 1-490): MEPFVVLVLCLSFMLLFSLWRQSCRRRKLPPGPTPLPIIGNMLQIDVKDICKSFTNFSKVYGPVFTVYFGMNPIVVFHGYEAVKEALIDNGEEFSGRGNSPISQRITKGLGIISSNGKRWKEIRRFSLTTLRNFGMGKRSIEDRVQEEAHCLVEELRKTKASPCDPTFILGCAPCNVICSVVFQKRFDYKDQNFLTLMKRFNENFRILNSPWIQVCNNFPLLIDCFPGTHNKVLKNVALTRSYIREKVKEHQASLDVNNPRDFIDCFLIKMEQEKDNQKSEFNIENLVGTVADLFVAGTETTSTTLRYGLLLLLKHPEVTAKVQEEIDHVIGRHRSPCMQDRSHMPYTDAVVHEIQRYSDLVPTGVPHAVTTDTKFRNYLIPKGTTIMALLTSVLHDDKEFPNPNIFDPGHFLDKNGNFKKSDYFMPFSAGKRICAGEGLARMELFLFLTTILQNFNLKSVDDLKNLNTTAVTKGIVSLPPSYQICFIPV

NaV1.5 = molecular target: T5, NaV1.5 (Homo sapiens, UniProt Q14524); test: Safety47 cardiac sodium channel assay; type: cell-based
T5 construct: Eurofins (DiscoverX Safety47)
Description: as §1

[6] = Metabolic stability in dog hepatocytes
in vivo = test: in vivo; parameters: species or system mouse
Description: Mouse pharmacokinetic (PK) data was generated at Charles River Laboratories (Groningen, Netherlands) and GVK
Biosciences (Hyderabad, India). Rat PK was performed by WuXi AppTec (Shanghai, China).
Animal Testing Declaration: All in life phase studies were conducted in accordance with local Ethics Review
process. See, statements from each company.

[7] = male C57BL6 mice, i.v. 1.0 mg/kg

Sequence of CYP2D6 (P10635 whole entry): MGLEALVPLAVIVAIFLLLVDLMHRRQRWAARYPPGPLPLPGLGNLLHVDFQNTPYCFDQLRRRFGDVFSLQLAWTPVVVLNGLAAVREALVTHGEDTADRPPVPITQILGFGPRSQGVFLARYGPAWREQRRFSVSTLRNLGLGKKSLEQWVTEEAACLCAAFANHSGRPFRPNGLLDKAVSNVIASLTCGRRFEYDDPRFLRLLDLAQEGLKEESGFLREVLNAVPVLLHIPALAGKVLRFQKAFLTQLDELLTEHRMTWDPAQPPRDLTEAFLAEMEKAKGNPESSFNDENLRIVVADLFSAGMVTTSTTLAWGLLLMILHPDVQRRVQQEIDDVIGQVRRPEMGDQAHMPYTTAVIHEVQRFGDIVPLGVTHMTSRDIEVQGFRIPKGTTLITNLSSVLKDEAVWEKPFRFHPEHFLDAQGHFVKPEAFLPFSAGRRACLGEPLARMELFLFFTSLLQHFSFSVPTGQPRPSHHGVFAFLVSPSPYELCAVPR
Sequence of CYP2C9 (P11712 whole entry): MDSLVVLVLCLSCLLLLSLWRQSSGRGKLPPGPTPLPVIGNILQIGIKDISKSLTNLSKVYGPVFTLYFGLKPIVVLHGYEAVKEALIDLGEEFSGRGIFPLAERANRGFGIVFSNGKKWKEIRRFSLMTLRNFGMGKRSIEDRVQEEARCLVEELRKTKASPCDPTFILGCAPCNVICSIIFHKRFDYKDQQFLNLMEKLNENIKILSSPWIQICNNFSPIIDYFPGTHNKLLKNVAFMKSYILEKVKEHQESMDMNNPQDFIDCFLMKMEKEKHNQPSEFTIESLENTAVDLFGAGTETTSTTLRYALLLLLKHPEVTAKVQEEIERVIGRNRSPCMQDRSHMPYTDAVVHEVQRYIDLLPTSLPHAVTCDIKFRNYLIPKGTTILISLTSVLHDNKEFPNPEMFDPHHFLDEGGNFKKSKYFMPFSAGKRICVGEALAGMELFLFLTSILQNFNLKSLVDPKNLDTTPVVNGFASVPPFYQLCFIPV
T1 sequence (P21397 whole entry): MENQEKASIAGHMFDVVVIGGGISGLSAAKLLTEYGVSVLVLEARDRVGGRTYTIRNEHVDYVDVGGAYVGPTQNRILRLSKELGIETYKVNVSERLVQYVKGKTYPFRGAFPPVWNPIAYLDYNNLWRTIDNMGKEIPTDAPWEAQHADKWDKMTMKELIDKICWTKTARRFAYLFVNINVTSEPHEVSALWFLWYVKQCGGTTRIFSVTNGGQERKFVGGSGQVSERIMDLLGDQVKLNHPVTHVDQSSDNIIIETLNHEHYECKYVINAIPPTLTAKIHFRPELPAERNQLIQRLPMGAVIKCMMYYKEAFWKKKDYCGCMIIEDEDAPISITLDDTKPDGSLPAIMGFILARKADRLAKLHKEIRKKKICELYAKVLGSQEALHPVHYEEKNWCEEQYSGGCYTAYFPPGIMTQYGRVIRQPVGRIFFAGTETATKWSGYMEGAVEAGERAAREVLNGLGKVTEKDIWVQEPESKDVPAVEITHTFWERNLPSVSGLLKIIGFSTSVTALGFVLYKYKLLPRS
T5 sequence (Q14524 whole entry): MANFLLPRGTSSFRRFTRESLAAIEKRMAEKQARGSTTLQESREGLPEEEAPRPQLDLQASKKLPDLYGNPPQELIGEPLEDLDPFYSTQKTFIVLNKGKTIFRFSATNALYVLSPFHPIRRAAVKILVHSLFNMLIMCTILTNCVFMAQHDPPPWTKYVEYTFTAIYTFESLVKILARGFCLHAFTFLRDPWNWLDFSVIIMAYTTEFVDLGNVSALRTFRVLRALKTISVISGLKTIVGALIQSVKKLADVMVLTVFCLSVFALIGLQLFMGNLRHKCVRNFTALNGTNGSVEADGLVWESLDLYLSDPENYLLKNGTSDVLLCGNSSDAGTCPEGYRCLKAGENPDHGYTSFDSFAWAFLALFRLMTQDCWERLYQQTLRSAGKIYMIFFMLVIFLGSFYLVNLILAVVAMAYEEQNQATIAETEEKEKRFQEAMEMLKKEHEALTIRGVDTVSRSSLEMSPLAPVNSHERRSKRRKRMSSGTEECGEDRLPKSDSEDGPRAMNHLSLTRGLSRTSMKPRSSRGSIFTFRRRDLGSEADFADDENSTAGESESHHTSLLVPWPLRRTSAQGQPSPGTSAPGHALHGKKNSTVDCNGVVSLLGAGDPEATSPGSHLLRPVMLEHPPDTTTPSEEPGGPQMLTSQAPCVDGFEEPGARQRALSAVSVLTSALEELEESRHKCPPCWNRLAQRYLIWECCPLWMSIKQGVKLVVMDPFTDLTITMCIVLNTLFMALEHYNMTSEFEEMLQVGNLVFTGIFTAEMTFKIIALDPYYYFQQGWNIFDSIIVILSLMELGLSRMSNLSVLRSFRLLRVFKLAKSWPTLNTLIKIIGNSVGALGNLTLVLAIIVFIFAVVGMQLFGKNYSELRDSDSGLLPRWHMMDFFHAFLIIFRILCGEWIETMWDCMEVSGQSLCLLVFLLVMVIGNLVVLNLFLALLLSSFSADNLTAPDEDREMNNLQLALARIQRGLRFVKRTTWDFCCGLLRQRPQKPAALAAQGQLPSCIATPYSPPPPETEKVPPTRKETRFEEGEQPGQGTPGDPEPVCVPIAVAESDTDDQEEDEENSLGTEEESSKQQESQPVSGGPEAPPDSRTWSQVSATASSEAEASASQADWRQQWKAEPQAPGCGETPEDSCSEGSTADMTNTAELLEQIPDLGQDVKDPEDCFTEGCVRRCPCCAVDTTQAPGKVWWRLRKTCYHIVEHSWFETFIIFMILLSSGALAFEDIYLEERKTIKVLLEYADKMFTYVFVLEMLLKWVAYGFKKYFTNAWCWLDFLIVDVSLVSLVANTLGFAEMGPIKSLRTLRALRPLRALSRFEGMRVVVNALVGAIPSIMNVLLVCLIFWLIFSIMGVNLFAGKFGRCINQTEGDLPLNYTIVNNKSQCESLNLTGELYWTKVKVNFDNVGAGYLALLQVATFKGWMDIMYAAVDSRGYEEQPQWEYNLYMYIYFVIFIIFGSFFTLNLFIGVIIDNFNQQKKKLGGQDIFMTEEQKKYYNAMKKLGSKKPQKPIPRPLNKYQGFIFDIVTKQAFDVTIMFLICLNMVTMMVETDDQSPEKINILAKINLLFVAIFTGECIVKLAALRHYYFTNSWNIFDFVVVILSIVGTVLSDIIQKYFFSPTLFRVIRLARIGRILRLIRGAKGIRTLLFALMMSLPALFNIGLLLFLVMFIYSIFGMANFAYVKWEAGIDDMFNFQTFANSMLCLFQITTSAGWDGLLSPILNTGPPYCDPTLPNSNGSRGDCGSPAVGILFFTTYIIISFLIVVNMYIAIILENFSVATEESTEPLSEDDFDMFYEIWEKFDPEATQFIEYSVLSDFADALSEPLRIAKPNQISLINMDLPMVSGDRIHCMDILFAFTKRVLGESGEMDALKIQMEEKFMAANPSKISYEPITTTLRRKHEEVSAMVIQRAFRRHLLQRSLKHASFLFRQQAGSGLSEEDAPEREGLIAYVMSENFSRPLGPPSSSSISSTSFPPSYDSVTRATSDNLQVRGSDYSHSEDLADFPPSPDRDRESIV
T3 sequence (Q12809 whole entry): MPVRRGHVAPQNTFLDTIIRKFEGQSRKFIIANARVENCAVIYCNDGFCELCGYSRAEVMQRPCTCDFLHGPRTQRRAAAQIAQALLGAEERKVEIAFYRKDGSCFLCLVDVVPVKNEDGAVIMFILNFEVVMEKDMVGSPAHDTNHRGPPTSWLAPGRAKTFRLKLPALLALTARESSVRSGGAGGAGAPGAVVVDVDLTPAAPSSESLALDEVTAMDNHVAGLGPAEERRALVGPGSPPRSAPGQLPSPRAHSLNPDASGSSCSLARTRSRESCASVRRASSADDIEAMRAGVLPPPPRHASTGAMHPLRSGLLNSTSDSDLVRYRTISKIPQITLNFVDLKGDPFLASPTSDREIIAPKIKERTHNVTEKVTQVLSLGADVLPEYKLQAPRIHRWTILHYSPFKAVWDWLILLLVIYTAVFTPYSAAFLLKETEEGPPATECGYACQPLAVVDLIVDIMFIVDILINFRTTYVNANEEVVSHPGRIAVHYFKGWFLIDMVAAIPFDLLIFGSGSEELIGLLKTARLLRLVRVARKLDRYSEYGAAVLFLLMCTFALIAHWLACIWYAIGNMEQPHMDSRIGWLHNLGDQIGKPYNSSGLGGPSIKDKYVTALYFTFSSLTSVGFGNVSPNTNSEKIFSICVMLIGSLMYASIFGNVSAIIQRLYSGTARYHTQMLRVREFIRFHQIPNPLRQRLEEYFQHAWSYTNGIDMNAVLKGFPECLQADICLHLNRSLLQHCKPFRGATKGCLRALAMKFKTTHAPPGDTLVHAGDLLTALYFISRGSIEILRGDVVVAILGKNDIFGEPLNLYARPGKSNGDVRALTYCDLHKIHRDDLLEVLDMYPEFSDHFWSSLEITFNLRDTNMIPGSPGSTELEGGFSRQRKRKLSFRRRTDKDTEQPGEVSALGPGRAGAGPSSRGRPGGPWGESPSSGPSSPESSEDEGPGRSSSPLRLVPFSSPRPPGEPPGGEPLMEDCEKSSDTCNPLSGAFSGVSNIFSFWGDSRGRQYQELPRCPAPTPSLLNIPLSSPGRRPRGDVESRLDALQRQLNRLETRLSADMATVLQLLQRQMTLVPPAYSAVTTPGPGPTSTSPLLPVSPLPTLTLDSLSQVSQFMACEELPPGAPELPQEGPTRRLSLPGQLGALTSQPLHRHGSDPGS

SMILES: FC(F)(F)c1c(Cl)ccc(-n2ccnn2)c1Cl [8l, 1-(2,4-Dichloro-3-(trifluoromethyl)phenyl)-1H-1,2,3-triazole]
- CYP TDI (CYP450 enzymes): no evidence for CYP time-dependent inactivation (TDI); also recorded: negative
- IC50 (MAOA): 28 µM
- IC50 (HTR3A): 4.5 µM
- Cross reactivity (other serine hydrolases detected) (serine hydrolases): no cross reactivity against any of the other 39 serine hydrolases detected and 0/39
- IC50 (hERG): > 30 µM
- kinases with >50% inhibition ([1]; @10 μM): 0/485
- inhibition for all kinases of the panel ([1]; at 10 μM): < 50%
- IC50 (CYP2C9): 19.6 µM
- IC50 (CYP2C9; read-out: CYP inhibition IC50, 2C9, HLM): 15 µM
- IC50 (CYP2C9; read-out: IC50 CYP2C9/Diclofenac, (+)NADPH pre-incubation): 15.4 µM
- solubility ([2]; 2% DMSO in PBS (with 10% solutol v/v), read-out: Solubility): 3000 µg/mL (≈ 10.6 mM)
- Mean Concentration of dose formulation ([2]; 20% w/v HPßCD in Water): 1000 µg/mL
- Mean Concentration of dose formulation ([2]; DMSO (2%v/v) + 10% v/v HPßCD in WFI (98% v/v/)): 1020 µg/mL
- Mean Concentration of dose formulation ([2]; DMSO (2%v/v) + 10% v/v Solutol in PBS (98% v/v)): 960 µg/mL
- solubility ([2]; dose formulations with cosolvents, read-out: aqueous solubility with cosolvents): 1000 µg/mL (≈ 3.55 mM)
- half-life [3]: > 3.61 h
- hepatocyte CLint [3]: < 6.4 µL/min/1e6 cells
- assays with >50% activity [4]: 3/78
- IC50 (CYP2D6; read-out: CYP inhibition IC50, 2D6, HLM): > 50 µM
- IC50 (CYP2D6; read-out: IC50 CYP2D6/Dextromethorphan, (+)NADPH pre-incubation): > 50 µM
- IC50 (CYP2D6; read-out: IC50 CYP2D6/Dextromethorphan, (-)NADPH pre-incubation): > 50 µM
- fraction unbound at 5 h, 10 µM ([5]; 10% w/v in PBS, pH 7.4, mouse, 10 µM, 5 h, read-out: % Unbound in brain homogenate, mean): 0.0298
- Brain binding, % bound ([5]; mouse brain homogenate): 97.0%
- fraction unbound at 5 h, 10 µM ([5]; mouse, 10% w/v in PBS, pH 7.4, mouse brain homogenate, read-out: Brain binding, % bound (converted)): 0.0298
- recovery at 5 h, 10 µM ([5]; mouse, mouse brain homogenate, 10% w/v in PBS, pH 7.4): 107%
- IC50 (CYP2C8; read-out: CYP inhibition IC50, 2C8, HLM): > 50 µM
- IC50 (CYP2C8; read-out: IC50 CYP2C8/Amodiaquine, (+)NADPH pre-incubation): > 50 µM
- IC50 (CYP2C8; read-out: IC50 CYP2C8/Amodiaquine, (-)NADPH pre-incubation): > 50 µM
- IC50 (NaV1.5): > 30 µM
- half-life [6]: > 3.61 h
- hepatocyte CLint [6]: < 6.4 µL/min/1e6 cells
- CL (in vivo; [7]): 10.4 mL/min/kg
- Vdss (in vivo; [7]): 2.0 L/kg
- AUC(0-inf) (in vivo; mouse, 2x30 mg/kg po, plasma): 83400 ng·h/mL
- AUC(0-t) (in vivo; mouse, 2x30 mg/kg po, plasma): 82400 ng·h/mL
- half-life (in vivo; mouse, 2x30 mg/kg po, plasma): 2.97 h
- Tmax (in vivo; mouse, 2x30 mg/kg po, plasma, read-out: Tmax): 9.5 h
- concentration at 10 h (in vivo; mouse, brain, po, mouse 2x30 mg/kg po, read-out: Brain concentration, individual animal): 7250 ng/g
- Fo (in vivo; mouse, p.o. 10 mg/kg): 66%
- brain Cmax (free drug) (in vivo; mouse, p.o. 10 mg/kg): ≈ 300 nM
- Tmax (in vivo; mouse, p.o. 10 mg/kg, brain): 1.0 h
- t1/2 (in vivo; mouse, p.o. 10 mg/kg, brain): 2.2 h
- time brain levels maintained above 100 nM (in vivo; mouse, p.o. 10 mg/kg, free drug): ~4 h
- Tmax (in vivo; mouse, p.o. 10 mg/kg, plasma): 0.5 h
- concentration at 0.5 h (in vivo; mouse, plasma, po, mouse 2x30 mg/kg po, 0.5 hr, read-out: Plasma concentration, individual animal): 5.09 µg/mL
- concentration at 1 h (in vivo; mouse, plasma, po, mouse 2x30 mg/kg po, 1 hr, read-out: Plasma concentration, individual animal): 4.92 µg/mL
- concentration at 2 h (in vivo; mouse, plasma, po, mouse 2x30 mg/kg po, 2 hr, read-out: Plasma concentration, individual animal): 4 µg/mL
- concentration at 4 h (in vivo; mouse, plasma, po, mouse 2x30 mg/kg po, 4 hr, read-out: Plasma concentration, individual animal): 3.18 µg/mL
- concentration at 9 h (in vivo; mouse, plasma, po, mouse 2x30 mg/kg po, 9 hr, read-out: Plasma concentration, individual animal): 0.645 µg/mL
- concentration at 9.25 h (in vivo; mouse, plasma, po, mouse 2x30 mg/kg po, 9.25 hr, read-out: Plasma concentration, individual animal): 5.94 µg/mL
- concentration at 9.5 h (in vivo; mouse, plasma, po, mouse 2x30 mg/kg po, 9.5 hr, read-out: Plasma concentration, individual animal): 7.57 µg/mL
- concentration at 10 h (in vivo; mouse, plasma, po, mouse 2x30 mg/kg po, read-out: Plasma concentration, individual animal): 6.27 µg/mL
- concentration at 11 h (in vivo; mouse, plasma, po, mouse 2x30 mg/kg po, 11 hr, read-out: Plasma concentration, individual animal): 6.85 µg/mL
